Results: patent US20250320249A1, “PEPTIDE HAVING ACTIVITY OF IMPROVING STATE OF SKIN, AND USE THEREOF” (CAREGEN CO., LTD., priority 2021, published 2025)

Experiments:
[1] = system: collagen type 1 (Col1a1); assay: Expression of extracellular matrix constituent factor in NIH3T3 cells (RT-PCR); format: cell-based, mouse; conditions: 50 μM or 100 μM peptide, 24 hours, FIG. 2, FIG. 3A
Method: (§1) In this example, the aim was to confirm the effect of the peptide according to an example on improving endogenous skin aging, including improvement of wrinkles and enhancement of elasticity, etc., by evaluating the expression levels of collagen type 1 (Col1a1), fibronectin, or elastin, which are known components of the dermis.
(§2) Specifically, NIH3T3 cells were seeded in a 6-well plate at a density of 3×10^5 cells/well and cultured for 24 hours. The cells were then washed once with serum-free DMEM media, and the culture medium was replaced with serum-free DMEM media. Thereafter, 50 μM or 100 μM of the peptide consisting of the amino acid sequence of SEQ ID NO: 1 was dispensed into the medium, and cultured in a CO2 incubator at 37° C. for 24 hours. The culture was then washed twice with PBS, and RNA was isolated from the culture using easy blue (iNtRON, Korea). Using an RT kit (Enzynomics, Korea), 1 μg of the isolated RNA was reverse transcribed to synthesize the respective cDNA. Polymerase chain reaction (PCR) was then performed using the cDNAs and primers Col1a1, fibronectin, and elastin. Meanwhile, the untreated group was used as the control group, and the group to which TGF-β1 was added (TGF-β1) was used as the positive control group, the nucleotide sequences of the primers used in this example are shown in Table 2 below.

[2] = system: elastin; assay: as above; format: cell-based, mouse; conditions: 50 μM or 100 μM peptide, 24 hours, FIG. 2, FIG. 3C
Method: as §1, §2

[3] = system: fibronectin; assay: as above; format: cell-based, mouse; conditions: 50 μM or 100 μM peptide, 24 hours, FIG. 2, FIG. 3B
Method: as §1, §2

[4] = system: NIH3T3 cells; assay: Survival rate of skin cells after apoptosis induced by ultraviolet irradiation (SRB); format: cell-based, mouse; conditions: 6 J/cm^2 ultraviolet rays, 50 μM or 100 μM peptide, 72 hours, FIG. 6A
Method: (§3) In this example, the aim was to confirm the effect of the peptide according to an example on the inhibition of apoptosis or cell recovery of skin cells induced by ultraviolet rays, by evaluating the change in survival rate of skin cells whose apoptosis was induced by ultraviolet irradiation.
(§4) Specifically, NIH3T3 cells or HaCaT cells were seeded in a 96-well plate at a density of 1×10^4 cells/well and cultured for 24 hours. The cells were then washed once with serum-free DMEM media, the culture medium was replaced with serum-free DMEM media, and 50 μM or 100 μM of the peptide consisting of the amino acid sequence of SEQ ID NO: 1 was dispensed to the culture medium. The culture medium dispensed with the peptide was cultured in a CO2 incubator at 37° C. for 1 hour, transferred to an e-tube, mixed with 100 μl of PBS, and dispensed into a well plate. Afterwards, using a UV irradiator (VILBER LOURMAT, France), 6 J/cm^2 ultraviolet rays were irradiated to NIH3T3 cells, and 15 m J/cm^2 ultraviolet rays were irradiated to HaCaT cells. The PBS in the well plate was then removed, 900 μL of the culture medium in which the peptides were dispensed was added, and the plate was cultured in a CO2 incubator at 37° C. for 72 hours. […] The dried culture was then dissolved in 20 mM Tris buffer solution and the absorbance at 560 nm was measured using a microplate reader (Molecular Devices, USA). […]

[5] = system: NIH3T3 cells; assay: Level of reactive oxygen species in ultraviolet-irradiated skin cells (DCF-DA, flow cytometry); format: cell-based, mouse; conditions: 6 J/cm2 ultraviolet rays, 50 μM or 100 μM peptide, 24 hours, FIG. 7A
Method: (§5) In this example, the aim was to confirm the effect of the peptide according to an embodiment on the antioxidant effect of skin cells induced by ultraviolet rays, by evaluating the level of reactive oxygen species in skin cells increased by ultraviolet irradiation.
(§6) Specifically, NIH3T3 cells or HaCaT cells were seeded in a 6-well plate at a density of 5×10^5 cells/well and cultured for 24 hours. The cells were then washed once with serum-free DMEM media, the culture medium was replaced with serum-free DMEM media, and 50 μM or 100 μM of the peptide consisting of the amino acid sequence of SEQ ID NO: 1 was dispensed to the culture medium. The culture medium dispensed with the peptide was cultured in a CO2 incubator at 37° C. for 1 hour, transferred to an e-tube, mixed with 100 μl of PBS, and dispensed into a well plate. Afterwards, using a UV irradiator (VILBER LOURMAT, France), 6 J/cm2 ultraviolet rays were irradiated to NIH3T3 cells, and 15 m J/cm2 ultraviolet rays were irradiated to HaCaT cells. The PBS in the well plate was then removed, 900 μL of the culture medium in which the peptides were dispensed was added, and the plate was cultured in a CO2 incubator at 37° C. for 24 hours. […] After washing the centrifuged cells with PBS, FL1 fluorescence values were measured through flow cytometry (FACS, BD, USA). […]

[6] = system: HaCaT cells; assay: Proliferation of skin cells (SRB staining, survival rate); format: cell-based, human; conditions: 50 μM or 100 μM peptide, 72 hours, serum-free DMEM, FIG. 1B
Method: (§7) In this example, the aim was to confirm the effect of a peptide according to an example on proliferation of skin cells, by evaluating changes in survival rate of NIH3T3 cells, which are mouse fibroblasts, or HaCaT cells, which are human keratinocytes.
(§8) Specifically, NIH3T3 cells or HaCaT cells were seeded in a 96-well plate at a density of 5×10^3 cells/well and cultured for 24 hours. The cells were then washed once with serum-free DMEM media, and the culture medium was replaced with serum-free DMEM media. Then, 50 μM or 100 μM of the peptide consisting of the amino acid sequence of SEQ ID NO: 1 was dispensed into the medium, and cultured in a CO2 incubator at 37° C. for 72 hours. The culture was then washed twice with PBS and treated with 4% paraformaldehyde (PFA) solution for 15 minutes to fix the cultured cells. The culture was then washed twice with distilled water, treated with SRB solution for 1 hour to stain the cells, washed with 1% acetic acid solution, and dried. The dried culture was then dissolved in 20 mM Tris buffer solution and the absorbance at 560 nm was measured using a microplate reader (Molecular Devices, USA). In this example, the untreated group was used as the control group, and the group to which insulin-like growth factor was added (IGF) was used as the positive control group.

[7] = system: sirtuin-1 (SIRT-1); assay: Expression of skin barrier factor in HaCaT cells (RT-PCR); format: cell-based, human; conditions: 50 μM or 100 μM peptide, 24 hours, FIG. 4, FIG. 5A
Method: (§9) In this example, the aim was to confirm the effect of the peptides according to an example on skin barrier defense, by evaluating the expression levels of sirtuin-1 (SIRT-1) or aquaporin-3 (AQP3).
(§10) Specifically, HaCaT cells were seeded in a 6-well plate at a density of 3×10^5 cells/well and cultured for 24 hours. The cells were then washed once with serum-free DMEM media, and the culture medium was replaced with serum-free DMEM media. Thereafter, 50 μM or 100 μM of the peptide consisting of the amino acid sequence of SEQ ID NO: 1 was dispensed into the medium, and cultured in a CO2 incubator at 37° C. for 24 hours. The culture was then washed twice with PBS, and RNA was isolated from the culture using easy blue (iNtRON, Korea). Using the RT kit (Enzynomics, Korea), 1 μg of the isolated RNA was reverse transcribed to synthesize the respective cDNA. Polymerase chain reaction was then performed using the cDNAs and primers sirtuin-1 and aquaporin-3. Meanwhile, the untreated group was used as the control group, and the group to which EGF was added (EGF) was used as the positive control group, the nucleotide sequences of the primers used in this example are shown in Table 3 below.

[8] = system: aquaporin-3 (AQP3); assay: as above; format: cell-based, human; conditions: 50 μM or 100 μM peptide, 24 hours, FIG. 4, FIG. 5B
Method: as §9, §10

[9] = system: HaCaT cells; assay: Level of reactive oxygen species in ultraviolet-irradiated skin cells (DCF-DA, flow cytometry); format: cell-based, human; conditions: 15 m J/cm2 ultraviolet rays, 50 μM or 100 μM peptide, 24 hours, FIG. 7B
Method: as §5, §6

[10] = system: HaCaT cells; assay: Survival rate of skin cells after apoptosis induced by ultraviolet irradiation (SRB); format: cell-based, human; conditions: 15 m J/cm^2 ultraviolet rays, 50 μM or 100 μM peptide, 72 hours, FIG. 6B
Method: as §3, §4

[11] = system: NIH3T3 cells; assay: Proliferation of skin cells (SRB staining, survival rate); format: cell-based, mouse; conditions: 50 μM or 100 μM peptide, 72 hours, serum-free DMEM, FIG. 1A
Method: as §7, §8

## DGFND (Peptide 1) [SEQ ID NO: 1]
[1]
  expression of Col1a1: increased
[2]
  expression of elastin: increased
[3]
  expression of fibronectin: increased
[4]
  cell survival rate of fibroblasts reduced by ultraviolet irradiation: restored
[5]
  level of reactive oxygen species in fibroblasts increased by ultraviolet irradiation: reduced
[6]
  proliferation of keratinocytes: promoted
[7]
  expression of SIRT-1: increased
[8]
  expression of AQP3: increased
[9]
  level of reactive oxygen species in keratinocytes increased by ultraviolet irradiation: reduced
[10]
  cell survival rate of keratinocytes reduced by ultraviolet irradiation: restored
[11]
  proliferation of fibroblasts: promoted
